Laboratory results reported in patent US20200197526A1, “REFILLABLE DRUG DELIVERY DEVICES AND METHODS OF USE THEREOF” (President and Fellows of Harvard College, priority 2014, published 2020).

Legend:
[1] = system: DNA-conjugated calcium-alginate gels; test: In vitro binding of fluorescent oligonucleotides to DNA-conjugated calcium alginate gels (FIG. 2); details: alginate-(T)20 calcium gel; phosphate buffer with 1 mM calcium chloride
[2] = system: MDA-MB-231 xenograft tumors; test: Xenograft tumor study with drug refilling; format: in vivo, J:Nu mice; details: 120 μg doxorubicin per animal IV (FIG. 5C)
Method: All animal experiments were performed according to established animal protocols. Tumors were created by injecting 10^6 MDA-MB-231 cells (American Type Culture Collection, VA) combined with Matrigel (BD Biosciences, CA) to a total volume of 200 μL (100 μL PBS and 100 μL Matrigel) into the hind limbs of 8 week old J:Nu (Foxn1^nu/Foxn1^nu) mice (Jackson Labs, ME). 35 days following tumor inoculation tumors were injected with alginate gels. 20 mg/mL alginate conjugated to DNA (thioT-SH or unconjugated) was mixed with doxorubicin (1.6 mg drug per mL of gel), then crosslinked with 4% wt/v CaSO4 (1.22 M) and then 50 μL of gel were injected into tumors with a 23-gauge needle. 2, 3, 4, and 5 weeks after initial tumoral gel injection, mice were injected retro-orbitally with 100 μL 0.5% DNA-conjugated alginate carrying doxorubicin (5% oxidized alginate, thioA-SH, Dye-750, 160 μg Dox-hydrazide=120 μg Dox). Throughout the study, tumor area was measured twice per week with digital calipers in two dimensions and the product of the two dimensional values was used to approximate tumor area. […]
The breast cancer MDA-MB-231 model was chosen because it is a slow-growing tumor, widely used to test chemotherapeutic strategies. […] The ability of targeted therapy to reduce tumor size was assessed by monitoring the change in tumor size in the three days following each IV administration. […]

TTTTTTTTTTTTTTTTTTTT-FAM [(T)20]
binding of fluorescently-labeled oligonucleotides to gel surface [1]: little binding

AAAAAAAAAAAAAAAAAAAA-FAM [(A)20]
binding of fluorescently-labeled oligonucleotides to gel surface [1]: bound to the gel surface in a sequence-specific manner

COc1cccc2c1C(=O)c1c(O)c3c(c(O)c1C2=O)C[C@@](O)(C(=O)CO)C[C@@H]3O[C@H]1C[C@H](N)[C@H](O)[C@H](C)O1 [doxorubicin]
change in tumor size in the three days following each IV administration [2]: continued to grow
